From US11465998B2, “Therapeutic compounds and methods of use thereof” (Regents of the University of Minnesota, priority 2019, dated 2022)
“Also recorded” adds a separate entry of the source.

Columns and labels:
[1] = test system: RAW264.7 murine macrophages; assay: Cytokine/chemokine induction in wild-type RAW264.7 murine macrophages (multiplexed immunoassay); assay type: cell-based; conditions: wild-type RAW264.7 murine macrophage cell line
Description: Cytokine induction by 7e and 7f was examined in murine-derived cell lines. […] The absence of activity was not due to extensive plasma protein binding by re-examining under near-serum-free conditions.
Example 5: High-throughput screens in porcine blood: Curated compound collections were obtained from the Institute for Therapeutics Discovery & Development at the University of Minnesota. Compound transfers from source (80 nL of 10 mM stocks) to assay plates were performed using an Echo 550 acoustic liquid handler (Labcyte, Sunnyvale, Calif.). For most libraries, a target final concentration of 10 μM of compound (in a final volume of 80 μL for the assay described below) was achieved. Compound plates were hermetically sealed and stored at −80° C. until used. Fresh, heparin-anticoagulated porcine blood from healthy animals were obtained under USDA supervision from Midwest Research Swine, LLC (Glencoe, Minn.). 80 μL of hematocrit-enriched porcine blood (low-speed centrifugation, followed by resuspension in DMEM supplemented with 10% fetal bovine serum) was added to compound plates and incubated for 15 h. […] NF-κB translocation was assayed spectrophotometrically using an alkaline phosphatase-specific chromogen (present in HEK-detection medium as supplied by InvivoGen) at 620 nm using a SpectraMax M4 multimode microplate reader (Molecular Devices, Sunnyvale, Calif.). […] Example 7: Human NOD1/2-specific reporter gene assays (NF-κB induction), and TLR-2/-3/-4/-5/-7/-8/-9/STING/ISG counter-screens: The induction of NF-κB was quantified using human TLR-2/-3/-4/-5/-7/-8/-9/NOD-1/NOD-2/STING/ISG-specific, rapid-throughput, liquid handler-assisted reporter gene assays as previously described by us (Wu, W. et al. J. Med. Chem. 2010, 53, 3198-3213; Shukla, N. M. et al. J. Med. Chem. 2010, 53, 4450-4465; Agnihotri, G. et al. J. Med. Chem. 2011, 54, 1490-1510 and Ukani, R. et al. Bioorg. Med. Chem. Lett. 2012, 22, 293-295). […]

human whole blood = assay: Cytokine/chemokine induction in human whole blood; assay type: cell-based

| Compound | induction of chemokines and proinflammatory cytokines [1] | induction of cytokines and chemokines (human whole blood) |
| --- | --- | --- |
| CCCCCc1nc2ccccc2n1-c1csc(C(N)=O)c1 [Compound 7e, 4-(2-Pentyl-1H-benzo[d]imidazol-1-yl)thiophene-2-carboxamide] | potently immunostimulatory; also recorded: induction of chemokines and cytokines | None of the small molecules (including 1, as well as the optimized, equipotent analogues 7e and 7f) showed any activity |
| CCCCCCc1nc2ccccc2n1-c1csc(C(N)=O)c1 [Compound 7f, 4-(2-Hexyl-1H-benzo[d]imidazol-1-yl)thiophene-2-carboxamide] | potently immunostimulatory; also recorded: essentially identical to that of 7e | None of the small molecules (including 1, as well as the optimized, equipotent analogues 7e and 7f) showed any activity |
